The values that follow come from paper PMC13050480, “Preclinical Development of GT-14, a Novel Inhibitor of Gαi2 Protein: Comprehensive Evaluation of Physicochemical, Metabolic Characteristics and Tissue Distribution” (The AAPS journal, 2025).

Series [1] can be described thus: Tissue distribution and urinary excretion after IV dose in rats. The class given is in vivo, Sprague Dawley rats. The method, then: Each tissue sample was weighed and homogenized in a clean scintillation vial with 0.9% saline (1:1, w/v) using the VWR 200 Homogenizer to make tissue homogenates. Homogenization was carried out on ice at a speed of 5000 rpm for all tissues except the prostate and kidney (10,000 rpm). A five-point calibration curve was prepared for the different tissues in the range of 0.39–25 ng/g. One hundred (100) μL of tissue homogenate samples were mixed with 10 μL of Griseofulvin (1.5 μg/mL, IS). The samples were vortexed for 30 seconds which was followed by protein precipitation with methanol (300 μL), to extract GT-14. The samples were again vortexed for 30 seconds, and then shaken on an automatic shaker for 5 minutes, followed by centrifugation at 14000 rpm for 20 minutes at 4°C. The supernatant was transferred to a sample vial, and a 5 μL aliquot was injected for LC-MS/MS analysis.
Healthy male Sprague Dawley rats (250–300 g) were used to evaluate the plasma pharmacokinetics and tissue distribution of GT-14, with approved animal protocol from the Institutional Animal Care and Use Committee (IACUC) at Texas Southern University. The jugular vein of rats was cannulated in-house the day before intravenous dosing and blood sample collection. GT-14 was administered intravenously as a co-solvent formulation via the jugular vein cannula at a dose of 5 mg/kg. Serial blood samples (100 μL) were collected up to 24 h post-dose. The blood samples were centrifuged at 3000 rpm for 10 min at 4°C, and plasma was collected and stored at −80°C till analysis. Urine samples were also collected at intervals of 0–7 and 7–24 hrs. using metabolic cages and stored at −20°C until analysis. At 24 hr, animals were sacrificed and organs such as prostate, liver, lungs, spleen, brain, kidneys, and heart were collected, following whole body perfusion (transcardiac perfusion) with normal saline to reduce residual blood in tissues. Plasma and tissue homogenate samples were processed (described in section “Analytical Assay”) and analyzed by LC-MS/MS. Tissue concentrations were calculated using the following formula: Tissueconcentrationng/g=CHTS×VHTS/WTS where, CHTS is the concentration (ng/mL) of GT-14 in the homogenized tissue sample; VHTS is the volume of homogenized tissue sample (mL) and WTS is the weight of tissue sample (g).

The test system of another series is Caco-2 cell monolayers. In words: Bi-directional transport study in Caco-2 cell culture model. In kind it is in vitro ADME, human. The method, then: (§1) Caco-2 cells were cultivated as described previously with slight modification ([12]). Briefly, a cell monolayer was prepared by seeding 400,000 cells per insert (Nunc, surface area 4.2 cm^2, 3 μm pore size). Cells were maintained at 37°C under 90% humidity and 5% CO2. Monolayers were used between 19 and 22 days after seeding. The integrity of each monolayer was checked by measuring the transepithelial electrical resistance (Millicell ERS®) before the experiment. The normal TEER values obtained were above 400 Ω·cm^2. Cell monolayers with TEER values less than 400 Ω·cm^2 were not used. Hank’s balanced salt solution (HBSS) (9.8 g/L) was supplemented with NaHCO3 (0.37 g/L), HEPES (5.96 g/L), and glucose (3.5 g/L) for all experiments, after adjusting the pH to the desired value.
(§2) For transport studies, 2.5 mL of GT-14 testing solution (10 μM) in HBSS (pH 7.4) was added to the apical side (A to B transport) or the basolateral side (B to A transport). Five donor samples (200 μL) and five receiver samples (200 μL) were taken at 0, 1, 2, 3, and 4 h followed by the addition of 200 μL of GT-14 test solution to the donor or 200 μL of blank HBSS buffer to the receiver side. Then, 100 μl of an ACN containing internal standard was added to the samples right after sampling. The TEER was measured at the end of the study, and the cell layer was washed carefully using cold blank HBSS 3 times, then cut and sonicated for 30 min in 1.0 mL of blank HBSS for intracellular GT-14 concentration measurement. All samples were centrifuged at 15,000 rpm for 15 min at 4°C for UPLC analysis.
(§3) The apparent permeability coefficient and efflux ratio were obtained according to the following equations: […]
(Passage across Caco-2 layers is used to estimate intestinal permeability.)

Assay in series [2]: as above
The class given is in vitro ADME, human. The conditions noted are these: human, donor 10 μM. The method, then:
as §1, §2, §3

Another series has as its system rat liver microsomes. As to the kind of experiment: Phase I biotransformation in rat liver microsomes. The class given is in vitro ADME. The conditions noted are these: NADPH regenerating system, 37°C. The method, then: The in vitro phase I reaction was conducted using rat liver microsome, which contain the cytochrome P450 monooxygenases that catalyze oxidation, reduction, or hydrolysis reactions to introduce or expose functional groups on the substrate. NADPH is the cofactor to provide the reducing equivalents required for enzymatic activity, while the cofactor regeneration systems (NADP^+, glucose-6-phosphate, and glucose-6-phosphate dehydrogenase) maintain a sustained supply of NADPH during the reaction to facilitate the metabolite, Potassium phosphate buffer (KPI) mimics physiological conditions. The components were added to microcentrifuge tubes in the following order: The stock solution GT-14 (5 μL, 1 mM) was pre-incubated with rat liver microsomes (12.5 μL, 20 mg/mL, Corning Inc.) at 37°C in KPI buffer(452.5 μL, 50 mM) for 5 min before the reaction was initiated by the addition of an NADPH regenerating system, which consisted of 25μL of solution A1(1.3 mM NADP+, 3.3 mM glucose-6-phosphate, 3.3 mM magnesium chloride), and 5μL of solution B1 (0.5 units/mL glucose-6-phosphate dehydrogenase). Reaction mixtures were incubated at 37 °C in a shaker bath, shaking at 100 rpm. […] The quenched samples were vortexed, centrifuged (14,000 rpm for 15 min) and analyzed by UPLC.
(In general: Liver microsomes are a subcellular fraction often used to study metabolism.)

Series [3] can be described thus: Ionization constant (pKa) determination, Pion Sirius T3, UV-metric and Fast UV titration. In kind it is physicochemical. The conditions noted are these: for pKa: 0.15 M KCl solution, 0.15 M KCl, 25 ± 1°C. The method, then: The Ionization constant of GT-14 was determined using the Pion Sirius T3 apparatus (Sirius Analytical Instruments Ltd., East Sussex, UK). It has an Ag/AgCl double junction reference pH electrode, a Sirius ±D-PAS spectrometer and a turbidity sensing device. The titration experiments were conducted in 0.15 M KCl solution under an argon atmosphere at a temperature of 25 ± 1°C. All tests were performed using standardized 0.5 M KOH and 0.5 M HCl as titration reagents. pKa value was measured using UV-metric and Fast UV titration methods.

Setting [4] is: rat, IV 5 mg/kg, 24 hr post dose, 5 mg/kg.

“Also recorded” adds a separate entry of the source. Like-named read-outs stand apart in the source and are kept apart here. A value given as a limit tells only on which side of the number the result lay.

For `C/C(=N\c1ccc(O)cc1)c1cc2ccccc2n1C` [GT-14, (E)-4-((1-(1-methyl-1H-indol-2-yl)ethylidene)amino)phenol], the “drug cleared from plasma” value in series [1] (24-h time point post single dose injection) is around 99%. The concentration at 24 h in series [1] (male, Sprague Dawley, heart, rat, IV 5 mg/kg, 24 hr post dose, read-out: Tissue concentration, heart) came to 0.13 ± 0.06 ng/g; in series [1] (male, Sprague Dawley, kidney, rat, IV 5 mg/kg, 24 hr post dose, read-out: Tissue concentration, kidney), 0.52 ± 0.61 ng/g; in series [1] (male, Sprague Dawley, liver, rat, IV 5 mg/kg, 24 hr post dose, read-out: Tissue concentration, liver), 0.13 ± 0.01 ng/g; in series [1] (male, Sprague Dawley, lung, rat, IV 5 mg/kg, 24 hr post dose, read-out: Tissue concentration, lung), 0.55 ± 0.15 ng/g; in series [1] (male, Sprague Dawley, plasma, rat, IV 5 mg/kg, 24 hr post dose, read-out: Plasma concentration), 9.62 ± 2.82 ng/mL; in series [1] (male, Sprague Dawley, prostate, rat, IV 5 mg/kg, 24 hr post dose, read-out: Tissue concentration, prostate) it was 2.19 ± 1.26 ng/g. Further, the Kp at 24 h in series [1] (male, Sprague Dawley, rat, intravenous, 5 mg/kg, all tissues, 24 hr post dose, read-out: tissue-to-plasma ratios) is below 1. Moreover, the GT-14 in brain entry in series [1] (setting [4]) is on record as “not detected; also recorded: detected in all sampled tissues except the brain”. Moreover, the “Tissue distribution (rank order, accumulation)” value in series [1] (setting [4]) was “highest concentration of GT-14 in the prostate, followed by the kidneys, lungs, heart, and liver; also recorded: High accumulation in prostate”. Moreover, the GT-14 in urine result in series [1] (rat, IV 5 mg/kg, urine 0–7 and 7–24 hrs) is “not detected”. Further, the BCS class result in the series on Caco-2 cell monolayers (based on low aqueous solubility and high permeability) was “BCS class II”. Moreover, in the series with Caco-2 cell monolayers (predicted from Caco-2 permeability), the “predicted absorption in the GI tract in humans” value is on record as above 75%. Further, the efflux ratio (usually the permeability from basolateral to apical divided by that in the opposite direction, in the common usage) at 4 h, 10 μM in series [2] (Caco-2, pH 7.4) was found to be 1.8. For the same compound, the Papp A→B at 4 h, 10 μM in series [2] (Caco-2, HBSS pH 7.4, n=3, read-out: apical to basolateral permeability (Pa-b)) came out at 13 ×10⁻⁶ cm/s. In addition, in series [2] (Caco-2, HBSS pH 7.4, n=3, read-out: basolateral to apical permeability (Pb-a)), the Papp B→A at 4 h, 10 μM was determined as 24.2 ×10⁻⁶ cm/s. For the same compound, in the series on rat liver microsomes, the “Phase I metabolism (UPLC peaks)” value is “undergoes Phase I metabolism; also recorded: underwent Phase I metabolism; also recorded: at least four additional peaks appeared”. Further, the pKa (in general, the pH at which an ionisable group is half protonated) in series [3] (read-out: pKa (printed as acidic pKa, nitrogen of the imine group)) came out at 3.46 ± 0.014; in series [3] (read-out: pKa (printed as basic pKa, phenolic group)), 10.5 ± 0.4. Also, the “isoelectric point (pI)” value in series [3] (pI=(pKa acid+pKa base)/2) is reported as “approximately 7.0”.
